Here are results for one molecule from US20100316732A1, “BEVERAGE COMPOSITIONS FOR THE PROMOTION OF JOINT HEALTH IN COMPANION ANIMALS” (priority 2008, published 2010).

SMILES strings stand for the structures.

The nature of this data set: Maximum solubility per liter of the active ingredients. It is filed as physicochemical. The conditions noted are these: active ingredient of aqueous canine water formula.

As to `[Cl-].[Cl-].[Mg+2]` [Magnium chloride], the “Maximum Solubility/Liter” value stood at 1100 mg/L.
